Test results from US9493421B2, “Acridinedione derivatives for treating pigmentation disorders and ageing of the skin” (PIERRE FABRE DERMO-COSMETIQUE, priority 2011, dated 2016).
Values joined by “and” are separate entries in the source; they are usually repeats but may differ in a detail not shown here. Equal values may be shown once.

Columns and labels:
[1] = set-up: key: very good: 0.1 to 3.0; good: 3.01 to 50; average: 50.1 to 1000; poor: >1000; none: NEGATIVE; conditions: reference products of the interpretation scale; cited from earlier work
[2] = tested on: B16-F10 cells; experiment: Assay of melanin in B16-F10 cells (colorimetric, α-MSH stimulated); format: cell-based, murine; conditions: Mus musculus, B16-F10, 72 h, 0.1 μM α-MSH, negative = inhibition, positive = stimulation, read-out: Melanin synthesis on B16
Experimental: It is a test to measure the synthesis of melanin by colorimetric assay on a murine melanoma cell line: line B16-F10. With this test it is possible to evaluate the depigmenting or propigmenting property of active ingredients.
The B16-F10 cells were seeded in 96-well plates in DMEM medium supplemented with FCS (foetal calf serum), and incubated 24 h at 37° C., 5% CO2. The cells were stimulated with 0.1 μM α-MSH (to stimulate melanin synthesis, the observed stimulation being about 150%) and treated 72 h with the active ingredients to be assayed. Each concentration of active ingredient was assayed at least in triplicate. Total melanin and intracellular melanin dissolved in lysis buffer were assayed by absorbance read-off at 405 nm. The total proteins were assayed in the lysate and the results expressed in mg melanin/mg proteins. Percentage activity was calculated as follows: […]
A negative value indicates inhibition of the melanin synthesis and translates depigmenting activity of the compound, whereas a positive value indicates induced melanin synthesis and translates a propigmenting property of the molecule.
• B16-F10 cell lines between P10 and P20 (murine melanocytes) (ATCC, CRL-6475); • reagents: DMEM without Phenol Red (GIBCOBRL, 118800-028), 200 mM glutamax-I supplement (GIBCOBRL, 35050-038), glucose (SIGMA, G7021), PBS (GIBCOBRL, 14190-094), foetal calf serum (Invitrogen, 10270-098), trypsin-EDTA (GIBCOBRL, 25300-054), NaOH (Sigma, S8045-500G), DMSO (Sigma, 471267-11), Nle, Phe-Melanocyte Stimulating Hormone (Sigma, M-8764), melanin (Sigma, M-0418), BCA-COPPER (SIGMA, B9643 and C2284), BSA (SIGMA, P0914) B) Test to Study Anti-Oxidizing Capability Using Chemiluminescence (Photochem Analytic Jena) Principle

[3] = Test to study anti-oxidizing capability using chemiluminescence (Photochem Analytic Jena); format: biochemical; conditions: quantity of sample needed for activity equivalent to 1 μg Trolox, superoxide anion trapping
Experimental: This test is used to determine the anti-oxidizing capability of the molecules. It is a method which generates free radicals via photochemical signal. The intensity of oxidation is 1000 times higher than obtained under normal conditions.
Detection is performed using chemiluminescence. This allows evaluation of water-soluble and liposoluble antioxidant molecules or extracts
The results are expressed in equivalent quantity of vitamin C or Trolox (6-hydroxy-2,5,7,8-tetramethylchroman-2-carboxylic acid) respectively. Sensitivity is in the order of one nanomole.
The anti-oxidizing activity studied in this test represents the capability of specifically trapping superoxide anions by chemiluminescence.
The quantified results are expressed in Trolox equivalent (standard) or in “μg of product per 1 μg of Trolox”. This means that a quantity x of sample is needed to obtain activity equivalent to the activity detected with 1 μg of standard. It is the antioxidizing power in relation to a reference; this avoids having to take into account the concentrations tested.
The superoxide radical: O2^∘^− is generated by photochemical reaction: L+hv(UV)+O2→L*O2→L^∘^++O2^∘^− • L*: luminol in the excited state L^∘+: luminol radical Signal Detection
Part of the superoxide anions are inhibited by the antioxidants. The remaining free radicals are quantified by chemiluminescence. L^∘^++O2^∘^−→N2+AP*^2−→AP^2−+hv (luminescence)
AP*^2−: aminophthalate in the excited state

[4] = Log P (octanol/water partition coefficient); format: physicochemical
Source text: Log P, also called Log Kow, is a measurement of the differential solubility of chemical compounds in two solvents (octanol/water partition coefficient).
Log P is equal to the logarithm of the ratio of the concentrations of the examined substance in octanol and in water. Log P=Log(Coct/Cwater). With this value it is possible to assess the hydrophilic or hydrophobic (lipophilic) nature of a molecule. If Log P is positive and very high, this means that the molecule under consideration is much more soluble in octanol than in water, which reflects its lipophilic nature, and conversely. A value of Log P=0 means that the molecule is distributed equally between the two phases and Coct=Cwater (C. Hansch, J. F. Quinlan, G. L. Lawrence, Linear free energy relationship between partition coefficients and the aqueous solubility of organic liquids, J. Org. Chem., 33 (1968), 347-350; C. Hansch, A. Leo, Exploring QSAR—Fundamentals and Applications in Chemistry and Biology, American Chemical Society, Washington, 1995; J. Sangster, Octanol—Water Partition Coefficients: Fundamentals and Physical Chemistry, Wiley, Chichester, 1997; W. Jorgensen, E. Duffy, Advanced Drug Delivery Reviews, (54), 2002, 355-366).

Compound	Activity (scale for interpretation of results) [1]	μg sample per 1 μg of Trolox [3]	logP [4]	other results
Albumin	poor (>1000)	–	–	–
N[C@@H](CS)C(=O)O [Cystein]	average (50.1 to 1000)	–	–	–
CCCCCCCCCCCCN1C2=C(C(=O)CC(C)(C)C2)C(c2ccc(O)c(OC)c2)C2=C1CC(C)(C)CC2=O [Example 1, 10-dodecyl-9-(4-hydroxy-3-methoxyphenyl)-3,3,6,6-tetramethyl-3,4,6,7,9,10-hexahydroacridine-1,8(2H,5H)-dione]	–	2.45 μg sample per 1 μg of Trolox	6.3	activation at 2 µM ([2]; at 2 μM): -40%
Cc1cc(C(C)(C)C)c(O)c(C(C)(C)C)c1 [BHT]	good (3.01 to 50)	–	–	–
O=C(O)CCCC[C@@H]1CCSS1 (racemic) [Lipoic acid]	none	–	–	–
CCCCCCCCCCCCN1C2=C(C(=O)CC(C(C)C)C2)C(c2ccc(O)c(OC)c2)C2=C1CC(C(C)C)CC2=O (centres unmarked) [Example 9, 10-dodecyl-9-(4-hydroxy-3-methoxyphenyl)-3,6-diisopropyl-3,4,6,7,9,10-hexahydroacridine-1,8(2H,5H)-dione]	–	1.57 μg sample per 1 μg of Trolox	> 5	activation at 10 µM [2]: -49%
O=C1O[C@H]([C@@H](O)CO)C(O)=C1O [Vitamin C]	very good (0.1 to 3.0)	–	–	–
CCCCCCCCCCCCN1C2=C(C(=O)CC(C)(C)C2)C(c2cc(C(C)(C)C)c(O)c(C(C)(C)C)c2)C2=C1CC(C)(C)CC2=O [Example 8, 10-dodecyl-9-(3,5-di-tert-butyl-4-hydroxyphenyl)-3,3,6,6-tetramethyl-3,4,6,7,9,10-hexahydroacridine-1,8(2H,5H)-dione]	–	62 μg sample per 1 μg of Trolox and 61.9 μg sample per 1 μg of Trolox	> 5	activation at 20 µM [2]: -46%
CCCCCCCCCCN1C2=C(C(=O)CC(C)(C)C2)C(c2ccc(O)c(O)c2)C2=C1CC(C)(C)CC2=O [Example 3, 10-decyl-9-(3,4-dihydroxyphenyl)-3,3,6,6-tetramethyl-3,4,6,7,9,10-hexahydroacridine-1,8(2H,5H)-dione]	–	0.015 μg sample per 1 μg of Trolox	5.21	activation at 20 µM [2]: -46%
CCCCCCCCCCN1C2=C(C(=O)CC(C)(C)C2)C(c2cc(OC)c(O)c(OC)c2)C2=C1CC(C)(C)CC2=O [Example 7, 10-decyl-9-(4-hydroxy-3,5-dimethoxyphenyl)-3,3,6,6-tetramethyl-3,4,6,7,9,10-hexahydroacridine-1,8(2H,5H)-dione]	–	0.81 μg sample per 1 μg of Trolox	5.34	activation at 10 µM [2]: -56%
